Assay type in all cases: functional
Test [1] has as its target T1, DNA dC->dU-editing enzyme APOBEC-3A (Homo sapiens, UniProt P31941). Nature of the test: SAR analysis of small molecule inhibitors of APOBEC3A DNA Deaminase via a fluorescence-based single-stranded DNA deaminase assay - Set 2. Conditions: read-out: IC50_Mean.
Test [2] has as its target T2, DNA dC->dU-editing enzyme APOBEC-3G (Homo sapiens, UniProt Q9HC16). As to the kind of experiment: SAR analysis of small molecule inhibitors of APOBEC3G DNA Deaminase via a fluorescence-based single-stranded DNA deaminase assay - Set 2. As to conditions: read-out: IC50_Mean.
Test [3] addresses T1, DNA dC->dU-editing enzyme APOBEC-3A. Nature of the test: A3A deaminase inhibition for selectivity – biochemical, dose response (AID 504722).
For test [4], the target named is T2, DNA dC->dU-editing enzyme APOBEC-3G. As to the kind of experiment: Dose Response confirmation of small molecule APOBEC3G DNA Deaminase Inhibitors via a fluorescence-based single-stranded DNA deaminase assay. [Related pubchem assays (depositor defined):AID493012, AID493028].
For test [5], the target named is T3, Rac GTPase-activating protein 1 (Homo sapiens, UniProt Q9H0H5).
T3 sequence (Q9H0H5 whole entry): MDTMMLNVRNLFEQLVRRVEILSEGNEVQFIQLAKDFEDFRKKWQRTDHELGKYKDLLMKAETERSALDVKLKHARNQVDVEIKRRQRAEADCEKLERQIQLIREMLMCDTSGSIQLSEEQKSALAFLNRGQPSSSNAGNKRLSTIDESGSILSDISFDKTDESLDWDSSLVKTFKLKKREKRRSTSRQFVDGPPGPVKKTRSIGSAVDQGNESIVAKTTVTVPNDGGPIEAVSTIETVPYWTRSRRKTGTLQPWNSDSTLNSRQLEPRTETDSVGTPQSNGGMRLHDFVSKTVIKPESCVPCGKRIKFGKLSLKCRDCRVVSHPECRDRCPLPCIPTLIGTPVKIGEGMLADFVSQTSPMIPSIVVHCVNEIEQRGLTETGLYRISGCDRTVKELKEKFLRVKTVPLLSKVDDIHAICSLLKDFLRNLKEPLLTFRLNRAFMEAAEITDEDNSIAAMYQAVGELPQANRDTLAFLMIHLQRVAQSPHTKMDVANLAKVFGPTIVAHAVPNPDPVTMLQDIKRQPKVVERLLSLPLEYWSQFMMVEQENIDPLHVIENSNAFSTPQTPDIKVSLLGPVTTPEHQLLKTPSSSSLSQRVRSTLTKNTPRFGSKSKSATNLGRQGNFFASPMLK
Nature of the test: blockers of MgcRacGAP-driven Rac1 GTP hydrolysis – biochemical, ADP Hunter fluorescence, primary and confirmatory, confirmation (AID 624330).

Test [6] deals with Tyrosine-protein kinase ABL1 (Homo sapiens, UniProt P00519).
Test [7] concerns the target Serine/threonine-protein kinase TBK1 (Homo sapiens, UniProt Q9UHD2). As to the kind of experiment: Navigating the Kinome. Panel member name: TBK1.
The target of test [8] is Macrophage-stimulating protein receptor (Homo sapiens, UniProt Q04912). As to the kind of experiment: Navigating the Kinome. Panel member name: MST1R.
Test [9] deals with Tyrosine-protein kinase JAK2 (Homo sapiens, UniProt O60674).
Test [10] concerns the target Serine/threonine-protein kinase TAO1 (Homo sapiens, UniProt Q7L7X3).
Test [11] addresses Glycogen synthase kinase-3 alpha (Homo sapiens, UniProt P49840).
Test [12] concerns the target Tyrosine-protein kinase Lck (Homo sapiens, UniProt P06239).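 Further: lck was assayed as one member of a kinase panel.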
Test [13] has as its target Tyrosine-protein kinase Fyn (Homo sapiens, UniProt P06241).
Test [14] deals with Ribosomal protein S6 kinase alpha-3 (Homo sapiens, UniProt P51812).
In test [15] the target is Dual specificity protein kinase CLK2 (Homo sapiens, UniProt P49760).
Test [16] has as its target Mitogen-activated protein kinase kinase kinase kinase 4 (Homo sapiens, UniProt O95819).
In test [17] the target is Vascular endothelial growth factor receptor 2 (Homo sapiens, UniProt P35968).
The target in test [18] is 5'-AMP-activated protein kinase catalytic subunit alpha-1 (Homo sapiens, UniProt Q13131).
Test [19] has as its target Serine/threonine-protein kinase pim-1 (Homo sapiens, UniProt P11309).
The target of test [20] is Macrophage colony-stimulating factor 1 receptor (Homo sapiens, UniProt P07333).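 Further: value comes from the Navigating the Kinome screening panel, CSF1R member.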
For test [21], the target named is Mitogen-activated protein kinase kinase kinase kinase 5 (Homo sapiens, UniProt Q9Y4K4).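 Further: measured as one member of a kinome-spanning kinase panel.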
In test [22] the target is Serine/threonine-protein kinase PAK 4 (Homo sapiens, UniProt O96013).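 Further: value obtained within a kinome profiling panel in which PAK4 was one of the panel members.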
In test [23] the target is Receptor-type tyrosine-protein kinase FLT3 (Homo sapiens, UniProt P36888).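 Further: FLT3 was tested as one member of a kinome-wide kinase panel.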
Test [24] deals with Cyclin-dependent kinase 9 (Homo sapiens, UniProt P50750).
A further test deals with Aurora kinase A (Homo sapiens, UniProt O14965).
In test [25] the target is Mitogen-activated protein kinase 14 (Homo sapiens, UniProt Q16539).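 Further: part of a kinome-wide panel, MAPK14 entry.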
Test [26] has as its target Dual specificity tyrosine-phosphorylation-regulated kinase 1A (Homo sapiens, UniProt Q13627).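 Further: measured against DYRK1A as one member of a broad kinome profiling panel.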
For test [27], the target named is Proto-oncogene tyrosine-protein kinase receptor Ret (Homo sapiens, UniProt P07949).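 Further: measured within a kinome-wide profiling panel, RET as the panel member.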
Test [28] addresses cAMP-dependent protein kinase catalytic subunit alpha (Homo sapiens, UniProt P17612).
Test [29] addresses cAMP-dependent protein kinase catalytic subunit PRKX (Homo sapiens, UniProt P51817).
The target in test [30] is ALK tyrosine kinase receptor (Homo sapiens, UniProt Q9UM73).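 Further: ALK tested as one member of a kinase panel screen.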
Test [31] concerns the target Dual specificity mitogen-activated protein kinase kinase 1 (Homo sapiens, UniProt Q02750). Nature of the test: Navigating the Kinome. Panel member name: MAP2K1.
Test [32] addresses Mitogen-activated protein kinase 9 (Homo sapiens, UniProt P45984).
Test [33] addresses Casein kinase I isoform alpha (Homo sapiens, UniProt P48729).
In test [34] the target is Dual specificity mitogen-activated protein kinase kinase 2 (Homo sapiens, UniProt P36507). As to the kind of experiment: Navigating the Kinome. Panel member name: MAP2K2.
Test [35] addresses Platelet-derived growth factor receptor alpha (Homo sapiens, UniProt P16234). As to the kind of experiment: Navigating the Kinome. Panel member name: PDGFRA.
Test [36] concerns the target Glycogen synthase kinase-3 beta (Homo sapiens, UniProt P49841).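 Further: value comes from a broad kinome profiling panel, with GSK3B as the panel member.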
Test [37] concerns the target Tyrosine-protein kinase receptor TYRO3 (Homo sapiens, UniProt Q06418).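 Further: TYRO3 value obtained as one member of a kinome-wide profiling panel.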
Test [38] has as its target Tyrosine-protein kinase JAK3 (Homo sapiens, UniProt P52333).
The target in test [39] is Fibroblast growth factor receptor 1 (Homo sapiens, UniProt P11362).
The target in test [40] is Calcium/calmodulin-dependent protein kinase type II subunit alpha (Homo sapiens, UniProt Q9UQM7). Nature of the test: Navigating the Kinome. Panel member name: CAMK2A.
Test [41] addresses Vascular endothelial growth factor receptor 1 (Homo sapiens, UniProt P17948).
For test [42], the target named is G protein-coupled receptor kinase 5 (Homo sapiens, UniProt P34947). As to the kind of experiment: Navigating the Kinome. Panel member name: GPRK5.
Test [43] concerns the target Mitogen-activated protein kinase 8 (Homo sapiens, UniProt P45983).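 Further: value comes from one member of a kinome-wide kinase profiling panel.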
The target of test [44] is Leukocyte tyrosine kinase receptor (Homo sapiens, UniProt P29376). Nature of the test: Navigating the Kinome. Panel member name: LTK.
Test [45] addresses Leucine-rich repeat serine/threonine-protein kinase 2 (Homo sapiens, UniProt Q5S007).
Test [46] deals with Cyclin-dependent kinase 8 (Homo sapiens, UniProt P49336). Nature of the test: Navigating the Kinome. Panel member name: CDK8.
Test [47] has as its target Death-associated protein kinase 3 (Homo sapiens, UniProt O43293).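 Further: measured as one member of a kinome-wide profiling panel.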
In test [48] the target is MAP/microtubule affinity-regulating kinase 3 (Homo sapiens, UniProt P27448).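 Further: MARK3 affinity measured as one member of a kinome panel.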
Test [49] deals with Dual specificity protein kinase CLK4 (Homo sapiens, UniProt Q9HAZ1).
The target in test [50] is Insulin-like growth factor 1 receptor (Homo sapiens, UniProt P08069). Nature of the test: Navigating the Kinome. Panel member name: IGF1R.
The target in test [51] is Cyclin-dependent kinase 19 (Homo sapiens, UniProt Q9BWU1). Nature of the test: Navigating the Kinome. Panel member name: CDC2L6.
For test [52], the target named is Inhibitor of nuclear factor kappa-B kinase subunit epsilon (Homo sapiens, UniProt Q14164). As to the kind of experiment: Navigating the Kinome. Panel member name: IKBKE.
Inhibitor of nuclear factor kappa-B kinase subunit epsilon, sequence (Q14164 whole entry): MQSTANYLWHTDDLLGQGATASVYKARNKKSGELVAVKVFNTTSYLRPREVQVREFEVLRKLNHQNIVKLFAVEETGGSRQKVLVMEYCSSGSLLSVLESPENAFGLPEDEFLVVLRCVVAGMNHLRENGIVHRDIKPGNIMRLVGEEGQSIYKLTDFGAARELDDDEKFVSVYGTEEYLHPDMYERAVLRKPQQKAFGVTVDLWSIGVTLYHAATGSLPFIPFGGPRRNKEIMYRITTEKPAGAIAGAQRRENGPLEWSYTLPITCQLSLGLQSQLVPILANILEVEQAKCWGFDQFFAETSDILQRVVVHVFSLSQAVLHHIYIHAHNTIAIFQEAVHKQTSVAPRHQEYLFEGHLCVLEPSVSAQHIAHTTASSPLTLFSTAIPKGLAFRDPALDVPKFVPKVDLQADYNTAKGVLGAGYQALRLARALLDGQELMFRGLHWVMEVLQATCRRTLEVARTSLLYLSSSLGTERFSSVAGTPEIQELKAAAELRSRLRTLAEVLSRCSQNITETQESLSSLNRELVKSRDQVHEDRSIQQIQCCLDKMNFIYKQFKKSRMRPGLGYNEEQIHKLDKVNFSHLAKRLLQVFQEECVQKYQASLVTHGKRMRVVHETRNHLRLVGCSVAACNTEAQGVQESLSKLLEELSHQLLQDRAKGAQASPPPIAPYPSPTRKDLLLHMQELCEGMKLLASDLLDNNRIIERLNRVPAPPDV
Test [53] concerns the target Mitogen-activated protein kinase kinase kinase kinase 2 (Homo sapiens, UniProt Q12851).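 Further: measured as one member of a kinome-wide kinase panel, with MAP4K2 as the panel entry.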
Test [54] has as its target Neuropeptides B/W receptor type 1 (Homo sapiens, UniProt P48145). Nature of the test: human NPBW1 receptor blockade, IC50 – cell-based, fluorescence, dose response, set 5, late-stage follow-up (AID 588566).
For test [55], the target named is Melanin-concentrating hormone receptor 1 (Homo sapiens, UniProt Q99705). As to the kind of experiment: Late-stage fluorescence-based counterscreen for antagonists of the G-protein coupled receptor 7 (GPR7): cell-based dose response assay to identify antagonists of the melanin-concentrating hormone receptor 1 (MCHR1) Set 5.

Calls of active or inactive are those of the source. A value given as a limit tells only on which side of the number the result lay.

T1 sequence (P31941 whole entry): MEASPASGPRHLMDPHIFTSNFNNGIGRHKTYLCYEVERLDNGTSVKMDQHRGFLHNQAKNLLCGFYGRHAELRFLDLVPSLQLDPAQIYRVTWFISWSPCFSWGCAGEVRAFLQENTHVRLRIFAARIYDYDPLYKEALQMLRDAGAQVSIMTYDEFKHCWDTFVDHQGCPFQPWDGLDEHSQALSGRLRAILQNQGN
T2 sequence (Q9HC16 whole entry): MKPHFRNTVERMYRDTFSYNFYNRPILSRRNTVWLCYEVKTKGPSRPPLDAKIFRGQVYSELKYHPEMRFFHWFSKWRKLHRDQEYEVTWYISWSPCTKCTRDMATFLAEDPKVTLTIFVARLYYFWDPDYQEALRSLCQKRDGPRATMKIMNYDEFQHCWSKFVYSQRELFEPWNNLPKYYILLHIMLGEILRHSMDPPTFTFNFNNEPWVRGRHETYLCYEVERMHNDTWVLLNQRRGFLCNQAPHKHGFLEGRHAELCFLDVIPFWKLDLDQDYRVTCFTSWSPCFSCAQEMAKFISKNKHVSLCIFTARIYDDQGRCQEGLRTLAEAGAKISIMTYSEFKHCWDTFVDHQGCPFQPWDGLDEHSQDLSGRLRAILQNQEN
Tyrosine-protein kinase receptor TYRO3, sequence (Q06418 whole entry): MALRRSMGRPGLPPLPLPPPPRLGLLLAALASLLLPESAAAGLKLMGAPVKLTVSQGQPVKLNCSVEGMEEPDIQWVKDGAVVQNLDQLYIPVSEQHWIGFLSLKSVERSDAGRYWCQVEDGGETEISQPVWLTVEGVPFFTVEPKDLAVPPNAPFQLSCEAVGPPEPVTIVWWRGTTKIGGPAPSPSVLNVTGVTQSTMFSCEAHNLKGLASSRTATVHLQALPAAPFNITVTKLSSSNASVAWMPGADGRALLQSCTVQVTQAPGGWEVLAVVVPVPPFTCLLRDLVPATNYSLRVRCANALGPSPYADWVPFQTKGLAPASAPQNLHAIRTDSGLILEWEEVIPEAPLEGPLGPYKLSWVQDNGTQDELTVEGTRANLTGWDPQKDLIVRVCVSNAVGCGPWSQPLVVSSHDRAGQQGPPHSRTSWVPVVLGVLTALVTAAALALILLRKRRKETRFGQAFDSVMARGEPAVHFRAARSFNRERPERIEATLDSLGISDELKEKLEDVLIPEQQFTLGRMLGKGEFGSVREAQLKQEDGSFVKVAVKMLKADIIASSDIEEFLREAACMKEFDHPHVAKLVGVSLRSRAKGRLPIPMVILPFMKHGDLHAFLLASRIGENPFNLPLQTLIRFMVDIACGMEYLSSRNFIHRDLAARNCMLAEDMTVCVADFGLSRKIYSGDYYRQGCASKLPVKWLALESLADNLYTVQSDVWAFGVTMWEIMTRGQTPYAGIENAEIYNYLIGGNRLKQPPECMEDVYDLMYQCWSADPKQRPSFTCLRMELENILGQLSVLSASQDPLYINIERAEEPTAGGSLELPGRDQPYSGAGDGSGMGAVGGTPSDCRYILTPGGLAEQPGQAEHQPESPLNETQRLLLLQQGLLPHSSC
Death-associated protein kinase 3, sequence (O43293 whole entry): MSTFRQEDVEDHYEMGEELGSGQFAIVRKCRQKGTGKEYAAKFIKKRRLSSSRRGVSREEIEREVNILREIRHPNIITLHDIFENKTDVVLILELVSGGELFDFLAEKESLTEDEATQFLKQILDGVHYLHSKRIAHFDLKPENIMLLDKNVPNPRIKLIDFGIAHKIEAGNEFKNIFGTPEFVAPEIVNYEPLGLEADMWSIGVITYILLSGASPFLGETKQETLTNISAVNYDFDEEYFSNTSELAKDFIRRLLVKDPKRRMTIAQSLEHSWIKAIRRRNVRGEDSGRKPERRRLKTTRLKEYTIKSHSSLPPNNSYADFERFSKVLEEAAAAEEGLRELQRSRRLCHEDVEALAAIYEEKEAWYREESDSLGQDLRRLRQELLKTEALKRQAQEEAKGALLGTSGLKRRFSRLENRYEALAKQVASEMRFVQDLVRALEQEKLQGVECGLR
Tyrosine-protein kinase Lck, sequence (P06239 whole entry): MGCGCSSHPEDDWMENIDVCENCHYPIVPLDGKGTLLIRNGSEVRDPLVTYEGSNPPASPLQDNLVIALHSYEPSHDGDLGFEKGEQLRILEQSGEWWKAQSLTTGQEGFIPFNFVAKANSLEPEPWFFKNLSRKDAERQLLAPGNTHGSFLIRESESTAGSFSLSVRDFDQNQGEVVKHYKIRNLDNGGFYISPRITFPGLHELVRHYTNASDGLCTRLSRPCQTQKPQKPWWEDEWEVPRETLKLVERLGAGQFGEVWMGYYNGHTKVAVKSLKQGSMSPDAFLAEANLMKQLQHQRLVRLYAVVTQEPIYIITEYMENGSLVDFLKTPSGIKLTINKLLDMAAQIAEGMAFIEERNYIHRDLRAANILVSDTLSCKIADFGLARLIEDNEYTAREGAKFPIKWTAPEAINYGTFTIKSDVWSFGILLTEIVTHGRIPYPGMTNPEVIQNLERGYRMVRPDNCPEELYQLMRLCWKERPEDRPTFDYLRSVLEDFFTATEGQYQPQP
Mitogen-activated protein kinase kinase kinase kinase 2, sequence (Q12851 whole entry): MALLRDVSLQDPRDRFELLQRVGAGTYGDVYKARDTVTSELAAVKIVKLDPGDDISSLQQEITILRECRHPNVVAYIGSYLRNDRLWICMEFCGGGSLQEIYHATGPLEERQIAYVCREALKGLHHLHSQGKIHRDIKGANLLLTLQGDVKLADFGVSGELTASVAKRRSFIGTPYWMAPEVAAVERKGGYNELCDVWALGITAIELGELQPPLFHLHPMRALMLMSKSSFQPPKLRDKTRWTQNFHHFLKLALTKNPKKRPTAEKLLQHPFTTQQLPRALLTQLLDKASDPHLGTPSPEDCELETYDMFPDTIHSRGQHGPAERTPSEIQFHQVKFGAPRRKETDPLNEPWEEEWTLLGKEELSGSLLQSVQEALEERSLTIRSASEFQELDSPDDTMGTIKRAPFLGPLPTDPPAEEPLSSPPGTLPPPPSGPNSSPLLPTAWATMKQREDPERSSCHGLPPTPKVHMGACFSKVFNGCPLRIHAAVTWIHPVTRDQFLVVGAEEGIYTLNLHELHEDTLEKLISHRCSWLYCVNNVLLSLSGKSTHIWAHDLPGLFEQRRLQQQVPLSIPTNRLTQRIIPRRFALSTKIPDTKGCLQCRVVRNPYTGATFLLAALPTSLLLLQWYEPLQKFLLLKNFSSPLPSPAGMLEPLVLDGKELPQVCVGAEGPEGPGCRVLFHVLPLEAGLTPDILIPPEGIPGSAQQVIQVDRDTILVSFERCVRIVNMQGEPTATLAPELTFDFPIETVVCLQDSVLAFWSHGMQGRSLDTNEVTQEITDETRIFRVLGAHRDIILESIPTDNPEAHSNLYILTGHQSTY
Glycogen synthase kinase-3 beta, sequence (P49841 whole entry): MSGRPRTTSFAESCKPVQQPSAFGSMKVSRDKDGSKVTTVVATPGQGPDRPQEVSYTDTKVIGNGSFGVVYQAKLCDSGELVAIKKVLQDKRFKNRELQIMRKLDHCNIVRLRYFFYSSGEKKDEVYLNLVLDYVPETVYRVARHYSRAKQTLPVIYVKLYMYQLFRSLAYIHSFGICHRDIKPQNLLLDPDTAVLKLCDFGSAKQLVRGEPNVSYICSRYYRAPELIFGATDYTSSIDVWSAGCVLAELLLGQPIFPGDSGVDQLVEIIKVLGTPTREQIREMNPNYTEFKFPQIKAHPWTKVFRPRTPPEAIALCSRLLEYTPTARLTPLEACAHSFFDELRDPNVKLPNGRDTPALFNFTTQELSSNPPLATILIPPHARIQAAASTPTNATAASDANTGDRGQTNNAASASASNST
Neuropeptides B/W receptor type 1, sequence (P48145 whole entry): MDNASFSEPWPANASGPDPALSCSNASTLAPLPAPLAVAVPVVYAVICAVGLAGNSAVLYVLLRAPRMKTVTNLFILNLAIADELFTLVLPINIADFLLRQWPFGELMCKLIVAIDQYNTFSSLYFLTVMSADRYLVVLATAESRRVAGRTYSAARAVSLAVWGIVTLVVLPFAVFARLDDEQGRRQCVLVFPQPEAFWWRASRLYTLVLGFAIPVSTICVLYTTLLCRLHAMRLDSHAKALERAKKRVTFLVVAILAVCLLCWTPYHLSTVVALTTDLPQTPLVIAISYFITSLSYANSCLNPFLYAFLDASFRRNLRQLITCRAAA

Consider `O=c1c2ccccc2n2c(=S)[nH]nc2n1-c1ccccc1`, for which the IC50 in test [1] was > 99 µM (inactive); in test [2], 0.376 µM (active); in test [3], > 100 µM (inactive); in test [4], 4.67 µM (active); in [5] it was 25.8 µM (active).

On to `Cc1cc(O)nc2[nH]nc(-c3cccc(-c4ccc(Cl)cc4)c3)c12`, for which the Ki was > 3.98 µM (inactive) in test [6]; > 3.16 µM (inactive) in test [7]; > 3.98 µM (inactive) in [8]; > 2.51 µM (inactive) in test [9]; > 6.31 µM (inactive) in test [10]; > 3.98 µM (inactive) in test [11]. Also, the Ki was > 6.31 µM (inactive) in test [12]; > 6.31 µM (inactive) in test [13]; > 3.98 µM (inactive) in [14]; > 3.98 µM (inactive) in test [15]; > 5.01 µM (inactive) in [16]; > 2.51 µM (inactive) in test [17]. The Ki in [18] was > 3.16 µM (inactive); in test [19], > 6.31 µM (inactive); in [20], > 2.51 µM (inactive); in test [21], > 3.98 µM (inactive); in test [22], 1.58 µM (active); in test [23] it was > 3.16 µM (inactive). In addition, the Ki was > 1.58 µM (inactive) in test [24]; > 1.58 µM (inactive) at Aurora kinase A; > 3.98 µM (inactive) in test [25]; > 2 µM (inactive) in test [26]; > 3.16 µM (inactive) in [27]; > 1.26 µM (inactive) in test [28]. In addition, the inhibition constant (Ki) in [29] is 0.00631 µM (active); in test [30], > 6.31 µM (inactive); in [31] it was > 3.16 µM (inactive); in [32] it was > 3.98 µM (inactive); in test [33] it was > 3.98 µM (inactive); in [34], > 3.98 µM (inactive). Also, the Ki is > 2.51 µM (inactive) in test [35]; > 3.98 µM (inactive) in [36]; > 3.16 µM (inactive) in test [37]; > 5.01 µM (inactive) in test [38]; > 3.98 µM (inactive) in [39]; > 7.94 µM (inactive) in test [40]. Also, the Ki in [41] is > 3.98 µM (inactive); in test [42], > 3.98 µM (inactive); in [43], > 5.01 µM (inactive); in test [44] it was > 2.51 µM (inactive); in [45], > 2.51 µM (inactive); in test [46] it was > 3.98 µM (inactive). The Ki in [47] was > 5.01 µM (inactive); in test [48], > 5.01 µM (inactive); in test [49], > 2.51 µM (inactive); in [50], > 2.51 µM (inactive); in test [51], > 100 µM (inactive); in test [52] it was > 3.16 µM (inactive). In addition, the Ki in test [53] is > 2.51 µM (inactive).

Turning to `CN(C)C(=O)c1ccc(Oc2c(Cl)cnn(Cc3cccc4ccccc34)c2=O)cc1`, the results for the IC50 in test [54] and in test [55] were 9.29 µM (active) and 7.88 µM (active), respectively.
